The conditions of series [1]: doses several thousand times higher than the ED50 of HU-210; cited from earlier work.
For another series, the system named is LPS treated mice. Nature of the series: Survival of LPS treated mice. It is filed as in vivo, BALB/c male mice. Conditions: for survival rate / mortality: 24 hours. As for the experimental part: The effect of HU-211 on the survival of mice, in response to administration of LPS was assessed. The survival was followed up to 48 hr.
Animals are administered with either HU-211 at a dose of 10 mg/kg i.p. or vehicle alone (10 ml/kg i.p.), and 30 minutes later with LPS IV. Two dose levels of LPS were tested in the present study: 10 and 15 mg/kg.
Mortality rate was recorded once a day for 2 days.

The nature of series [2]: Solubility in water / aqueous solutions. It is filed as physicochemical. An excerpt:
Among the novel compounds tested, monoesters including nicotinate, succinate and maleate are preferred. Most preferred compounds include the glycinate ester and N-substituted glycinate ester salts, such as the trimethyl- and triethylammonium acetate derivatives of HU-211. These novel compounds have the added advantage of being soluble in some aqueous solutions, whereas the parent compounds are extremely hydrophobic.
(§1) This makes the development of formulations suitable for intravenous administration of HU-211 difficult, hampering its clinical application. Water-soluble derivatives of HU-211 designed to readily release the drug by hydrolysis following i.v. administration might overcome this problem and will be used as prodrugs.

Series [3] can be described thus: Phase I clinical trials, intravenous, healthy human volunteers. It is filed as in vivo. The following applies: dose ranges contemplated for humans.
Series [4] in a line: Passage of the blood-brain barrier.
Description: as §1

The next series relates to LPS treated rats. Kind of series: LPS-induced hypotension and hematocrit in rats. Format: in vivo, Sprague Dawley rats. As for the experimental part: A prominent manifestation of endotoxemia is hypotension, and the effect of a drug on mean arterial blood pressure (MABP) indicates its potency as an anti-endotoxic shock agent. The protective effect of a test compound is evaluated in rats treated with LPS, in which the blood pressure and other vital signs are monitored up to 4 hrs after induction of endotoxemia.
Rats were individually anesthetized with halothane in 70% nitrogen, 30% oxygen. The right femoral artery was catheterized using polyethylene tubes (PE-50, Clay Adams, USA), and connected to a computerized physiograph through a pressure transducer (XTT Vigo, USA). The animals are then connected via a rectal probe to the above physiological recorder. Rectal temperature is kept throughout the study between 37° C. and 38° C., using a heating lamp. Following 10-15 minutes of baseline recording, animals are intravenously administered an injection of saline, vehicle alone or HU-211 at a dose of 4 mg/kg. As soon as possible after completion of the first injection (2-5 minutes later) they are administered an intravenous injection of LPS at a dose of 15 mg/kg (in a volume of 3 ml/kg). Blood pressure and heart rate are recorded for the following 4 hrs. The hematocrit is measured and recorded just prior to drug administration, and 1, 2, and 3 hours later. At the end of the follow up period, animals are sacrificed by deep anesthesia with halothane.

The conditions of series [5]: doses far exceeding those contemplated for repression of cytokines; cited from earlier work.
In the next series the test system is EAE. Kind of series: Experimental autoimmune encephalomyelitis (EAE) in Lewis rats. Format: in vivo. Conditions: single iv injection day 10 to 18 post induction, FIG. 6. An excerpt: Autoimmune diseases are associated with elevated levels of TNF. The models which are most conveniently studied are experimental allergic encephalomyelitis (EAE) and experimental autoimmune arthritis in rodents. EAE is an autoimmune neurological disease elicited by sensitization of the animals to myelin basic protein from the central nervous system, which is also known as basic encephalitogenic protein. EAE is considered by many to represent a model of the human disease multiple sclerosis. Experimental autoimmune arthritis is induced in animals by immunization with collagen in complete Freund's adjuvant. The ability of compounds of the general formula I to prevent or attenuate the clinical symptoms of these autoimmune diseases was tested.
The Lewis rats used were 8 week old females (from OLAC, England). The animals (5 per cage) were maintained on a 12 hour light/12 hour dark regimen, at a constant temperature of 22° C., with food and water ad libitum. EAE was induced in these animals by immunization with purified guinea pig myelin basic protein emulsified in complete Freund's adjuvant. Guinea pig myelin basic protein (mbp) was prepared from spinal cord homogenates defatted with chloroform/ethanol and the isolated protein was purified using ion exchange chromatography. Each animal received 50 micrograms of the purified protein. […]

Structures are written as SMILES.

Results on one compound are retold here after patent publication US6545041B2, “Tumor necrosis factor alpha (TNF-α) inhibiting pharmaceuticals” (Yessum Research Development Co. of the Hebrew University of …, priority 1995, dated 2003).

As a reminder, the mortality is the share of the test organisms that died. High values mean fewer survivors, low ones more survivors.

For the compound `CCCCCCC(C)(C)c1cc(O)c2c(c1)OC(C)(C)[C@H]1CC=C(CO)C[C@H]21` [HU-211, (+)-(3S,4S)-1,1-dimethylheptyl homologue of 7-hydroxy-Δ^6-tetrahydrocannabinol], the cannabimimetic activity result in series [1] was “inactive as a cannabimimetic”. Moreover, the survival rate with LPS treated mice (LPS 10 mg/kg iv, HU-211 10 mg/kg i.p., vehicle 43%) was 91%; in the series on LPS treated mice (LPS 15 mg/kg iv, HU-211 10 mg/kg i.p., vehicle 33%) it was 67%. The mortality in the series with LPS treated mice (LPS 10 mg/kg iv, HU-211 10 mg/kg i.p., vehicle 57%) came out at 9%; in the series with LPS treated mice (LPS 15 mg/kg iv, HU-211 10 mg/kg i.p. 30 min before, vehicle 67%), 33%. Besides, the survival in the series on LPS treated mice (LPS 10 mg/kg iv, HU-211 10 mg/kg i.p., 48 hours, vehicle none survived) is listed as 33%; with LPS treated mice (LPS 10 mg/kg iv, HU-211 10 mg/kg i.p., 72 hours post LPS), “None of the animals survived”; in the series on LPS treated mice (LPS 15 mg/kg iv, HU-211 10 mg/kg i.p., 48 hours), “none of the animals survived”. The “solubility in water / aqueous solutions” value in series [2] is reported as “very poor solubility in water”. For the same compound, the toxicity or psychoactivity result in series [3] was “no evidence of toxicity or psychoactivity”. Moreover, the “passage of the blood-brain barrier” value in series [4] is “readily passes the blood-brain barrier”. The “time post-LPS at which normotension was regained” value with LPS treated rats (HU-211 treated rats) was at most 30 min. In addition, the “duration of transient hypotension” value in the series on LPS treated rats (HU-211 treated rats, evident 10 minutes after LPS) lay in the range of 5 to 10 min. For the same compound, in the series with LPS treated rats (rats, HU-211 iv 2-3 minutes before LPS, LPS alone about 10% increase), the “LPS-induced increase in hematocrit” value is listed as “prevented”. In addition, the “LPS-induced drop in mean arterial blood pressure (MABP)” value in the series with LPS treated rats (rats, LPS 15 mg/kg iv, HU-211 4 mg/kg iv pre-administration, LPS alone around 30% reduction) is “abolished”. Further, the “stereotypy and locomotor hyperactivity” value in series [5] is “induction of stereotypy and locomotor hyperactivity”. Further, the mean clinical score result with EAE is “diminution of mean clinical score”.
